“Also recorded” adds a separate entry of the source. Where two headings read alike, the source gives them in different places.
What was measured:
GST Ya (α class) = experiment: Western blot of GST Ya (α-type) expression in H4IIE cells; type: cell-based, rat
Procedure: (§1) Western Blot Analysis Glutathione S-transferase Expression. Cultured H4IIE rat hepatoma cells were treated with test agent with various concentrations or various time points. […] Cells were harvested using SDS lysis buffer (20 mM Tris-Cl, pH 6.8, containing 0.4% SDS (w/v), 4% glycerol, 0.24 M β-mercaptoethanol, and 0.5% bromphenol) and the lysates were boiled for 5 minutes, then stored at -20° C. An aliquot of lysate was used for protein determination using a bicichoninic acid protein assay kit with BSA as a standard. Equivalent amounts of protein were electrophoresed by SDS-PAGE on precast 12.5% Tris-glycine acrylamide gels (Novex, San Diego, Calif.), then transferred to polyvinylidene difluoride (PDVF) membranes. Nonspecific binding sites were blocked with 10% nonfat dry milk and blotting was performed with goat polyclonal antirat GSTYa (α class) IgG or antirat, GSTYb (μ class) IgG and analyzed by alkaline phosphatase-conjugated antigoat IgG secondary antibody (Oxford Biomed Research, Inc.) and quantified using an AP 20 Alkaline Phosphatase Kit detection system (Oxford Biomed Research, Inc.).
(§2) Induction of Expression of Glutathione S-transferase Ya (α-type) and Yb (μ-type) in Cell Cultures. […] To date, the superfamily of mammalian cytosolic GST isozymes has been defined genetically to consist of four classes; α, μ, π, and θ, which differ in tissue-specificexpression and distribution, as well as substrate specificity. […] Cultured H4IIE cells were treated either with 10 μM of 4'-BF (FIG. 7B) or sulforaphane for 0, 2, 4, 8, 16, 24, and 48 hours for a time-dependent study, or with 0.16, 0.8, 4, 10, 20, and 50 μM of 4'-BF (FIG. 7A) or sulforaphane for 24 hr for a dose-dependent study (FIG. 7A). The expressions of two major detoxification isoforms of GSTs (GST Ya: α-type, and GST Yb: μ-type) mediated by 4'-BF or sulforaphane were investigated in H4EII rat hepatoma cells using Western blotting technique.

GST Yb (μ class) = experiment: Western blot of GST Yb (μ-type) expression in H4IIE cells; type: cell-based, rat
Procedure: as §1, §2

[1] = test system: quinone reductase (QR), Hepa 1c1c7 cells; experiment: Quinone reductase (QR) induction in Hepa 1c1c7 cells; type: cell-based, murine
Text: This test was used because the specific activity of QR rises concomitantly with other phase II enzymes in many animal tissues in response to various chemopreventive agents. The study included natural and synthetic B-ring substituted flavones, as well as biosynthetic precursor chalcones and flavanones.
Determination of Quinone Reductase Activity in Cell Cultures. To determine the potency of inducers, Hepa 1c1c7 murine hepatoma cells as described in the Gerhauser publication were placed in 96-well plates at a density of 1×10^4 cells/ml in 200 μl of medium. After a preincubation period of 24 hr, the media were decanted and 190 μl fresh media were added to each well. Ten (10) μl test agents dissolved in 10% DMSO (final concentration of DMSO is 0.5%) with a serial 2-fold dilutions were introduced to each well, and the plates were incubated for an additional 48 hours. Specific QR activity was determined by measuring the NADPH-dependent menadiol-mediated reduction of 3-(4, 5-dimethylthiazo-2-yl)-2,5-diphenyltetrazolium bromide to blue formazan formed per mg protein per minute. Protein was determined in an identical set of test plates by staining with crystal violet. Hepa 1c1c7 cells retain many characteristics of normal issues, particularly the capacity for carcinogen activation and metabolism. They are amenable to precise control of environmental, nutritional, and hormonal factors. […] Induction of QR activity was calculated by comparing the QR specific activity of agent-treated cells with that of solvent-treated cells, and a plot of ratio was generated. CD represents the concentration required to double QR induction. Chemopreventive index (CI) is an indexing value generated by comparing CD with IC50 (concentration for 50% inhibition of cell viability) values.
Induction of Quinone Reductase in Hepa 1c1c7 Cells. […] Modification of the B-ring of chalcones, flavanones, and flavones was hypothesized to induce torsion of the B-ring, and, therefor, simulate out-of-plane distortions characteristic of polycyclic aromatic hydrocarbons, such as DMBA. Induction of QR activity was calculated by comparing the QR specific activity of agent-treated cells with the QR specific activity of solvent-treated cells, and a plot of ratios was generated. CD represents the concentration required for a double fold of induction. CI (Chemopreventive Index) is a value obtained by comparing CD with IC50 (concentration for 50% inhibition of cell viability in […]).

Hepa 1c1c7 cells [2] = experiment: Hepa 1c1c7 cell viability (cytotoxicity); type: cell-based, murine; details: Mus musculus, Hepa-1c1c7, read-out: IC50, concentration for 50% inhibition of cell viability
[3] = test system: pDTD-1097CAT construct (QR gene 5'-region), HepG2 cells; experiment: CAT expression in HepG2 cells transfected with pDTD-1097CAT; type: cell-based, human cells; rat QR gene; details: 10 μM, 48 h; p<0.0001
Procedure: Transcient Transfection Gene Expression Assay. Cultured HepG2 human hepatoma cells were transfected with three plasmid constructs (PDTD-1697CAT, XRE-CAT, ARE-CAT) containing various portions of the 5'-region of the QR gene fused to the CAT gene using the calcium phosphate precipitation method (J. Sambrook et al., Molecular cloning: A Laboratory Handbook, Ed. Chris Nolan, CHS Laboratory Press, 1989). After 4 hours of transfection, the cells were treated with 10% glycerol for 3 minutes and rinsed with PBS and switched to MEM, containing 100 units/ml penicillin G sodium, 100 units/ml streptomycin sulfate, nonessential amino acids, and 1 mM sodium pyruvate (Life Technologies Inc.) supplemented with 10% fetal bovine serum for 12-16 hours recovery. Then, test agents were added to the cells. After 48 hours of treatment with the test agents, cells were harvested with lysis buffer (Boehringer Mannheim Biochemical) and CAT protein expressions were assessed using a CAT ELISA kit (Boehringer Mannheim Biochemical). […] All data were expressed as mean +/- SD. […]
(§3) In particular, FIG. 1 illustrates quantitation of CAT expression in HepG2 cells transfected with QR-CAT constructs. […] CAT expression (ng CAT/mg protein) was determined using a CAT ELISA, and the ratio of CAT expression between treated and control cells was calculated (ratio=treated/control).

[4] = test system: QR ARE-CAT construct, HepG2 cells; experiment: CAT expression in HepG2 cells transfected with QR ARE-CAT; type: cell-based, human cells; rat QR gene; details: 10 μM, 48 h; p<0.0001
Procedure: (§4) Transcient Transfection Gene Expression Assay. Cultured HepG2 human hepatoma cells were transfected with three plasmid constructs (PDTD-1697CAT, XRE-CAT, ARE-CAT) containing various portions of the 5'-region of the QR gene fused to the CAT gene using the calcium phosphate precipitation method (J. Sambrook et al., Molecular cloning: A Laboratory Handbook, Ed. Chris Nolan, CHS Laboratory Press, 1989). After 4 hours of transfection, the cells were treated with 10% glycerol for 3 minutes and rinsed with PBS and switched to MEM, containing 100 units/ml penicillin G sodium, 100 units/ml streptomycin sulfate, nonessential amino acids, and 1 mM sodium pyruvate (Life Technologies Inc.) supplemented with 10% fetal bovine serum for 12-16 hours recovery. Then, test agents were added to the cells. After 48 hours of treatment with the test agents, cells were harvested with lysis buffer (Boehringer Mannheim Biochemical) and CAT protein expressions were assessed using a CAT ELISA kit (Boehringer Mannheim Biochemical). CAT enzyme expression was normalized for the protein content of each sample. All data were expressed as mean +/- SD. Means were compared using Student's t test with n=4.
(§5) This was further investigated in transient transfection experiments wherein human hepatoma cells were transfected with DNA constructs containing various portions of the 5' upstream promoter region of the QR gene linked to the CAT reporter gene by using the calcium phosphate precipitation method. Construct pDTD-1097CAT contains elements of the rat QR gene connected to the CAT construct gene. […]
as §3

H4IIE rat hepatoma cells = experiment: Toxicity in H4IIE rat hepatoma cells; type: cell-based
[5] = test system: quinone reductase (QR), Hepa 1c1c7 cells; details: reported comparator value; cited from earlier work
[6] = test system: QR XRE-CAT construct, HepG2 cells; experiment: CAT expression in HepG2 cells transfected with QR XRE-CAT; type: cell-based, human cells; rat QR gene; details: 10 μM, 48 h
Procedure: as §4, §5, §3

Hepa 1c1c7 cells [7] = details: comparator value; read-out: IC50 (toxicity), comparison value; cited from earlier work

## C[S+]([O-])CCCCN=C=S (stereo not drawn) [Sulforaphane, sulforaphane, reference compound]
GST Ya (α class); 10 μM, 0-48 h
  maximum induction time, GST Ya: 16 to 24 h
GST Ya (α class); 0.16-50 μM, 24 h
  maximum induction concentration, GST Ya: 4 to 10 µM
GST Ya (α class); H4IIE cells
  GST Ya (α) induction: Time, dose-dependent induction
GST Yb (μ class); 10 μM, 0-48 h
  maximum induction time, GST Yb: 16 to 24 h
GST Yb (μ class); 0.16-50 μM, 24 h
  maximum induction concentration, GST Yb: 4 to 10 µM
GST Yb (μ class); H4IIE cells
  GST Yb (μ) induction: Time, dose-dependent induction
[1]; IC50/CD, 2880 min
  CI, chemoprevention index (IC50/CD): 26
[1]; Mus musculus, Hepa-1c1c7, 48 h, Hepa 1c1c7 cells, 48 h, read-out: CD, concentration to double the specific activity of QR
  EC (2-fold): 0.43 µM
Hepa 1c1c7 cells [2]
  IC50: 11 µM
[3]
  CAT expression, pDTD-1097CAT: significantly (p<0.0001) induced
[4]
  CAT expression, QR ARE-CAT: significantly (p<0.0001) induced; also recorded: selectively interacted with the ARE
H4IIE rat hepatoma cells
  toxicity in H4IIE cells: a declined induction for sulforaphane was observed at a concentration higher than 10 μM due to the toxic effects
[5]
  CD, comparison value: 0.23 µM
[6]
  CAT expression, QR XRE-CAT: not observed

## O=c1cc(-c2ccccc2)oc2ccc3ccccc3c12 [β-naphthoflavone]
Hepa 1c1c7 cells [7]
  IC50: 8 µM
[4]
  CAT expression, QR ARE-CAT: significantly (P<0.0001, students t test with n=4) induced
[5]
  CD, comparison value: 0.02 to 0.04 µM
[6]
  CAT expression, QR XRE-CAT: significantly (P<0.0001, students t test with n=4) induced

From patent US6046231A, “Use of 4'-bromoflavone in a cancer chemopreventative composition and method” (The Board of Trustees of the University of Illinois, priority 1999, dated 2000)
